Results reported in patent US9931327B2, “Derivatives of 1-phenyl-2-pyridinyl alkyl alcohols as phosphodiesterase inhibitors” (Chiesi Farmaceutici S.p.A., priority 2011, dated 2018).

System: LPS-induced TNF-α release in peripheral blood mononuclear cells (PBMCs)
Assay: In vitro determination of PDE4 inhibitory activity in the PBMCs assay (LPS-induced TNF-α release)
Assay type: cell-based, human
Settings: PBMC; human PBMCs, LPS 3 ng/ml, 18 hours, TNF-α by ELISA; read-out: PDE4 inhibition (IC50, 50% inhibition of LPS-induced TNF-α release)
Outline: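 Cryopreserved human PBMCs (10^5 cells/well) pre-incubated 30 min with compound (10^−12 to 10^−6 M or 10^−3 to 10^−7 M), then stimulated with LPS 3 ng/ml for 18 h at 37 °C. TNF-α in medium by ELISA; IC50 as mean ± 95% confidence limits.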

Question: How did the IC50 turn out when `CN(C)C(=O)c1cccc(C(=O)N2CCC[C@@H]2C(=O)O[C@@H](Cc2c(Cl)c[n+]([O-])cc2Cl)c2ccc(OC(F)F)c(OCC3CC3)c2)c1` [Compound 185, 3,5-dichloro-4-((S)-2-(3-(cyclopropylmethoxy)-4-(difluoromethoxy)phenyl)-2-((R)-1-(3-(dimethylcarbamoyl)benzoyl)pyrrolidine-2-carbonyloxy)ethyl)pyridine 1-oxide] was run?
Answer: 0.1 to 1 nM

Question: For `O=C(O[C@@H](Cc1c(Cl)c[n+]([O-])cc1Cl)c1ccc(OC(F)F)c(OCC2CC2)c1)[C@@H]1SCCN1C(=O)c1ccccc1` [Compound 186, 4-((S)-2-((S)-3-benzoylthiazolidine-2-carbonyloxy)-2-(3-(cyclopropylmethoxy)-4-(difluoromethoxy)phenyl)ethyl)-3,5-dichloropyridine 1-oxide], which IC50 is on record?
Answer: 0.1 to 1 nM

Question: How did the IC50 turn out when `CN(C)C(=O)c1cccc(C(=O)N2CCS[C@H]2C(=O)O[C@@H](Cc2c(Cl)c[n+]([O-])cc2Cl)c2ccc(OC(F)F)c(OCC3CC3)c2)c1` [Compound 187, 3,5-dichloro-4-((S)-2-(3-(cyclopropylmethoxy)-4-(difluoromethoxy)phenyl)-2-((S)-3-(3-(dimethylcarbamoyl)benzoyl)thiazolidine-2-carbonyloxy)ethyl)pyridine 1-oxide] was run?
Answer: 0.1 to 1 nM

Question: How did the IC50 turn out when `CN(C)C(=O)c1cccc(CC(=O)N2CCS[C@H]2C(=O)O[C@@H](Cc2c(Cl)c[n+]([O-])cc2Cl)c2ccc(OC(F)F)c(OCC3CC3)c2)c1` [Compound 198, 3,5-dichloro-4-((S)-2-(3-(cyclopropylmethoxy)-4-(difluoro-methoxy)phenyl)-2-((S)-3-(2-(3-(dimethylcarbamoyl)phenyl)acetyl)-thiazolidine-2-carbonyloxy)ethyl)pyridine 1-oxide] was run?
Answer: 0.1 to 1 nM

Question: How did the IC50 turn out when `N#Cc1ccccc1S(=O)(=O)N1CCS[C@H]1C(=O)O[C@@H](Cc1c(Cl)c[n+]([O-])cc1Cl)c1ccc(OC(F)F)c(OCC2CC2)c1` [Compound 200, 3,5-dichloro-4-((S)-2-((S)-3-(2-cyanophenylsulfonyl)thiazolidine-2-carbonyloxy)-2-(3-(cyclopropylmethoxy)-4-(difluoromethoxy)phenyl)ethyl)pyridine 1-oxide] was run?
Answer: 0.1 to 1 nM

Question: With `O=C(O[C@@H](Cc1c(Cl)c[n+]([O-])cc1Cl)c1ccc(OC(F)F)c(OCC2CC2)c1)[C@@H]1SCCN1S(=O)(=O)c1ccc2c(c1)OCCO2` [Compound 201, 3,5-dichloro-4-((S)-2-(3-(cyclopropylmethoxy)-4-(difluoromethoxy)phenyl)-2-((S)-3-(2,3-dihydrobenzo[b][1,4]dioxin-6-ylsulfonyl)thiazolidine-2-carbonyloxy)ethyl)pyridine 1-oxide] as the compound, how does the IC50 read?
Answer: 0.1 to 1 nM

Question: Which IC50 does the source give for `Cc1cc(S(=O)(=O)N2CCS[C@H]2C(=O)O[C@@H](Cc2c(Cl)c[n+]([O-])cc2Cl)c2ccc(OC(F)F)c(OCC3CC3)c2)c(C)s1` [Compound 203, 3,5-dichloro-4-((S)-2-(3-(cyclopropylmethoxy)-4-(difluoromethoxy)phenyl)-2-((S)-3-(2,5-dimethylthiophen-3-ylsulfonyl)thiazolidine-2-carbonyloxy)ethyl)pyridine 1-oxide] here?
Answer: 0.1 to 1 nM

Question: With `N#Cc1ccc(S(=O)(=O)N2CCS[C@H]2C(=O)O[C@@H](Cc2c(Cl)c[n+]([O-])cc2Cl)c2ccc(OC(F)F)c(OCC3CC3)c2)cc1` [Compound 206, 3,5-dichloro-4-((S)-2-((S)-3-(4-cyanophenylsulfonyl)thiazolidine-2-carbonyloxy)-2-(3-(cyclopropylmethoxy)-4-(difluoromethoxy)phenyl)ethyl)pyridine 1-oxide] as the compound, how does the IC50 read?
Answer: < 0.1 nM

Question: With `N#Cc1cccc(S(=O)(=O)N2CCS[C@H]2C(=O)O[C@@H](Cc2c(Cl)c[n+]([O-])cc2Cl)c2ccc(OC(F)F)c(OCC3CC3)c2)c1` [Compound 207, 3,5-dichloro-4-((S)-2-((S)-3-(3-cyanophenylsulfonyl)thiazolidine-2-carbonyloxy)-2-(3-(cyclopropylmethoxy)-4-(difluoromethoxy)phenyl)ethyl)pyridine 1-oxide] as the compound, how does the IC50 read?
Answer: 0.1 to 1 nM

Question: Which IC50 does the source give for `N#Cc1cc(S(=O)(=O)N2CCS[C@H]2C(=O)O[C@@H](Cc2c(Cl)c[n+]([O-])cc2Cl)c2ccc(OC(F)F)c(OCC3CC3)c2)ccc1F` [Compound 209, 3,5-dichloro-4-((S)-2-((S)-3-(3-cyano-4-fluorophenylsulfonyl)thiazolidine-2-carbonyloxy)-2-(3-(cyclopropylmethoxy)-4-(difluoromethoxy)phenyl)ethyl)pyridine 1-oxide] here?
Answer: 0.1 to 1 nM

Question: `CN1C(=O)Cc2cc(S(=O)(=O)N3CCS[C@H]3C(=O)O[C@@H](Cc3c(Cl)c[n+]([O-])cc3Cl)c3ccc(OC(F)F)c(OCC4CC4)c3)ccc21` [Compound 210, 3,5-dichloro-4-((S)-2-(3-(cyclopropylmethoxy)-4-(difluoromethoxy)phenyl)-2-((S)-3-(1-methyl-2-oxoindolin-5-ylsulfonyl)thiazolidine-2-carbonyloxy)ethyl)pyridine 1-oxide] was tested. Which IC50 did it give?
Answer: < 0.1 nM

Question: For `CN(C)C(=O)c1cccc(S(=O)(=O)N2CCC[C@@H](C(=O)O[C@@H](Cc3c(Cl)c[n+]([O-])cc3Cl)c3ccc(OC(F)F)c(OCC4CC4)c3)C2)c1` [Compound 228], which IC50 is on record?
Answer: 0.1 to 1 nM

Question: Which IC50 does the source give for `CNC(=O)c1cc(S(=O)(=O)N2CCS[C@H]2C(=O)O[C@@H](Cc2c(Cl)c[n+]([O-])cc2Cl)c2ccc(OC(F)F)c(OCC3CC3)c2)cn1C` [Compound 241, 3,5-dichloro-4-((S)-2-(3-(cyclopropylmethoxy)-4-(difluoromethoxy)phenyl)-2-((S)-3-(1-methyl-5-(methylcarbamoyl)-1H-pyrrol-3-ylsulfonyl)thiazolidine-2-carbonyloxy)ethyl)pyridine 1-oxide] here?
Answer: < 0.1 nM

Question: Which IC50 does the source give for `O=C(O[C@@H](Cc1c(Cl)c[n+]([O-])cc1Cl)c1ccc(OC(F)F)c(OCC2CC2)c1)[C@@H]1SCCN1S(=O)(=O)c1c[nH]c(C(=O)N2CCCC2)c1` [Compound 242, 3,5-dichloro-4-((S)-2-(3-(cyclopropylmethoxy)-4-(difluoromethoxy)phenyl)-2-((S)-3-(5-(pyrrolidine-1-carbonyl)-1H-pyrrol-3-ylsulfonyl)thiazolidine-2-carbonyloxy)ethyl)pyridine 1-oxide] here?
Answer: < 0.1 nM

Question: Which IC50 does the source give for `Cn1ccnc1S(=O)(=O)N1CCS[C@H]1C(=O)O[C@@H](Cc1c(Cl)cncc1Cl)c1ccc(OC(F)F)c(OCC2CC2)c1` [Compound 243, (S)-((S)-1-(3-(cyclopropylmethoxy)-4-(difluoromethoxy)phenyl)-2-(3,5-dichloropyridin-4-yl)ethyl) 3-(1-methyl-1H-imidazol-2-ylsulfonyl)thiazolidine-2-carboxylate] here?
Answer: 0.1 to 1 nM

Question: For `O=C(O[C@@H](Cc1c(Cl)c[n+]([O-])cc1Cl)c1ccc(OC(F)F)c(OCC2CC2)c1)[C@H]1CCCN1S(=O)(=O)c1ccccc1` [Compound 244, 3,5-dichloro-4-((S)-2-(3-(cyclopropylmethoxy)-4-(difluoromethoxy)phenyl)-2-((R)-1-(phenylsulfonyl)pyrrolidine-2-carbonyloxy)ethyl)pyridine 1-oxide], which IC50 is on record?
Answer: 1 to 10 nM

Question: `CN1CCOc2ccc(S(=O)(=O)N3CCC[C@H]3C(=O)O[C@@H](Cc3c(Cl)c[n+]([O-])cc3Cl)c3ccc(OC(F)F)c(OCC4CC4)c3)cc21` [Compound 250, 3,5-dichloro-4-((S)-2-(3-(cyclopropylmethoxy)-4-(difluoromethoxy)phenyl)-2-((S)-1-(4-methyl-3,4-dihydro-2H-benzo[b][1,4]oxazin-6-ylsulfonyl)pyrrolidine-2-carbonyloxy)ethyl)pyridine 1-oxide] was tested. Which IC50 did it give?
Answer: < 0.1 nM
